Test results from patent US9585821B2, “Methods for making compositions for improving skin conditions” (Allergan Industrie SAS, priority 2010, dated 2017).

Tests used:
[1] = Chemical and physical stability of mannitol after sterilization; format: physicochemical; settings: 25% Mannitol autoclaved five times at 121° C. for 15 minutes
Description: The chemical and physical stability of mannitol after sterilization was determined by autoclaving 25% Mannitol ([…] Pharmaceuticals, Itasca, Ill.) five times at 121° C. for 15 minutes.

[2] = Appearance of fluid compositions, visually examined; format: physicochemical; settings: fluid compositions comprising a matrix polymer
Description: Fluid compositions made for testing were prepared as described in Example 1, except that 1) 1 mL of each fluid composition was made and the amount of mannitol added to the test fluid compositions was 0% (w/v) for control, 0.5% (w/v), 5% (w/v), 9% (w/v), and 17% (w/v). The appearance of the fluid compositions was visually examined.

[3] = known, cited from earlier work

chemical and physical stability after sterilization [1]: chemically and physically stable | mannitol that fluid compositions can include before it begins to precipitate [2]: about 15.4%
SMILES: OC[C@@H](O)[C@@H](O)[C@H](O)[C@H](O)CO [mannitol]
mass solubility ([3]; in water): 15.4% | mannitol solubility in water [3]: 1 g mannitol/5.5 ml water
